Source: patent publication US20260374766A1, “METHODS FOR TREATING CANCER” (Antares Therapeutics, Inc., priority 2022, published 2026)
Like-named read-outs stand apart in the source and are kept apart here.

How the values were obtained:
[1] = biological target: T1, p53 Y220C mutant protein (amino acid residues 94-293) (Homo sapiens, UniProt P04637, Y220C); test: Surface Plasmon Resonance (SPR) assay, Kd_kinetic; format: binding; details: SPR, p53 Y220C, read-out: SPR P53 Y220C KD kinetic
T1 construct: p53 Y220C mutant protein (amino acid residues 94-293)
In short: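 Biacore 8K SPR; 16 or 20 °C; Tris 50 mM pH 7.5, NaCl 100 mM, DTT 1 mM, Brij35 0.01%, Tween-20 0.05%, DMSO 1%. Kd_kinetic by 1:1 fit.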

[2] = biological target: T1, p53 Y220C mutant protein (amino acid residues 94-293); test: Thermal Shift Assay (TSA), dTM; format: binding; details: for ΔTm at 10 µM: 10 uM compound; for ΔTm at 100 µM: 100 uM compound, read-out: TSA P53 Y220C dTM (100 uM)
In short: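 Differential scanning fluorimetry with Sypro Orange on 5 μM p53 Y220C residues 94-293, compound tested at 10 μM or 100 μM after 3 hours at 20 °C; buffer 20 mM HEPES, pH7.4, 100 mM NaCl, 1% DMSO.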

H1299 p53 R273H = test: Cell Proliferation Assay (CellTiter-Glo, CTG), H1299 p53 R273H (NClH1299-inducible p53 R273H); format: cell-based; details: Homo sapiens, NCI-H1299, 120 h, CellTiter-Glo, 5 days
In short: (§1)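 NClH1299 lines stably transduced with Tet-inducible p53 Y220C or R273H, plus NUGC3, were treated with compound for 5 days at 250-500 cells/well. IC50 derived from CellTiter-Glo luminescent signal after 10 min room-temperature incubation.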

H1299 p53 Y220C = test: Cell Proliferation Assay (CellTiter-Glo, CTG), H1299 p53 Y220C (NClH1299-inducible p53 Y220C); format: cell-based; details: Homo sapiens, NCI-H1299, 120 h, CellTiter-Glo, 5 days
In short: as §1

NUGC3 p53 Y220C = test: Cell Proliferation Assay (CellTiter-Glo, CTG), NUGC3 p53 Y220C; format: cell-based; details: Homo sapiens, NUGC-3, 120 h, CellTiter-Glo, 5 days
In short: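 Tet-One inducible p53 Y220C or R273H constructs were stably introduced into NCI-H1299 by lentiviral transduction; NUGC3 was used as is. Cells (250-500 per well) were exposed to compound for 5 days, then CellTiter-Glo was added for 10 min at room temperature and IC50 was calculated from luminescence.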

p53 Y220C = p53 Y220C (Homo sapiens, UniProt P04637, Y220C); test: Luciferase Reporter Assay (Luc), p53 response element, NClH1299 cells with inducible p53 Y220C; format: cell-based; details: luciferase reporter, NClH1299 inducible p53 Y220C, 6 hour; for AC50: read-out: Luc P53 Y220C AC50
In short: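 24 h dox pre-induction (0.5 ug/mL), then 6 h compound; One-Glo luminescent read.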

[3] = thermal shift, read-out: TSA P53 Y220C dTM (10 uM)
[4] = 10 uM tool compound as positive control
[5] = p53 Y220C, read-out: TSA P53 Y220C dTM
[6] = NClH1299-inducible p53 R273H cells
[7] = NClH1299-inducible p53 Y220C cells

Row | SMILES | Kd ([1]; kinetic KD) [µM] | ΔTm at 10 µM [2, 3] [°C] | ΔTm at 100 µM ([2]; thermal shift) [°C] | IC50 (H1299 p53 R273H; H1299 p53 R273H) [µM] | IC50 (H1299 p53 Y220C; H1299 p53 Y220C) [µM] | IC50 (NUGC3 p53 Y220C; NUGC3 p53 Y220C) [µM] | Emax (p53 Y220C; [4]) [%] | AC50 (p53 Y220C) [µM] | Kd [1] [µM] | ΔTm at 10 µM [2, 5] [°C] | IC50 (H1299 p53 R273H; [6]) [µM] | IC50 (H1299 p53 Y220C; [7]) [µM] | IC50 (NUGC3 p53 Y220C; NUGC3 cells) [µM] | AC50 (p53 Y220C; AC50) [µM] | Emax (p53 Y220C; Emax) [%]
1 | CNC(=O)c1ccc(NCC#Cc2nc3c(N[C@H]4CN(C)CC[C@@H]4F)cccn3c2SC(F)(F)F)c(OC)c1 [Example 147] | < 0.01 | ≥ 10 | ≥ 10 | 8 to 10 | < 0.75 | < 0.75 | > 90 | < 0.75 | – | – | – | – | – | – | –
2 | CNC(=O)c1ccc(NCC#Cc2nc3c(N[C@H]4CCn5cncc5C4)cccn3c2SC(F)(F)F)c(OC)c1 [Example 177] | < 0.01 | ≥ 10 | ≥ 10 | 5 to 8 | < 0.75 | 0.75 to 1.5 | 80 to 90 | < 0.75 | – | – | – | – | – | – | –
3 | CNC(=O)c1ccc(OC)c(NCC#Cc2nn3c(N[C@@H]4CCN(C)C[C@@H]4F)cccc3c2SC(F)F)c1 [Example 194] | < 0.01 | ≥ 10 | 5 to 10 | 5 to 8 | < 0.75 | < 0.75 | > 90 | < 0.75 | – | – | – | – | – | – | –
4 | CNC(=O)c1ccc(OC)c(NCC#Cc2nc3c(N[C@@H]4CCN(C)C[C@@H]4F)cccn3c2SC(F)(F)F)c1 [Example 107, 3-{[3-(8-{[(3S,4R)-3-fluoro-1-methylpiperidin-4-yl]amino}-3-[(trifluoromethyl)sulfanyl]imidazo[1,2-a]pyridin-2-yl)prop-2-yn-1-yl]amino}-4-methoxy-N-methylbenzamide] | < 0.01 | ≥ 10 | ≥ 10 | < 5 | < 0.75 | < 0.75 | 80 to 90 | < 0.75 | – | – | – | – | – | – | –
5 | CNC(=O)c1cnc(OC)c(NCC#Cc2nc3c(N[C@@H]4CCN(C)C[C@@H]4F)nccn3c2SC(F)(F)F)c1 [Example 254] | – | – | – | – | – | – | – | – | < 0.01 | ≥ 10 | ≥ 10 | < 0.75 | < 0.75 | < 0.75 | 80 to 90
6 | CNC(=O)c1ccc(NCC#Cc2nc3c(N[C@@H]4CCN(C)C[C@@H]4F)cccn3c2SC(F)(F)F)cc1 [Example 163] | < 0.01 | ≥ 10 | ≥ 10 | ≥ 10 | < 0.75 | < 0.75 | > 90 | < 0.75 | – | – | – | – | – | – | –
7 | CNC(=O)c1ccc(NCC#Cc2cc3c(N[C@@H]4CCN(C)C[C@@H]4F)cccn3c2SC(F)(F)F)c(OC)c1 [Example 126, 4-{[3-(8-{[(3S,4R)-3-fluoro-1-methylpiperidin-4-yl]amino}-3-[(trifluoromethyl)sulfanyl]indolizin-2-yl)prop-2-yn-1-yl]amino}-3-methoxy-N-methylbenzamide] | < 0.01 | ≥ 10 | – | 8 to 10 | < 0.75 | < 0.75 | > 90 | < 0.75 | – | – | – | – | – | – | –
8 | COc1cc(S(C)(=O)=O)ccc1NCC#Cc1nc2c(NC3CC4(C3)CN(C)C4)cccn2c1CC(F)(F)F [Example 114, N-(2-{3-[(4-methanesulfonyl-2-methoxyphenyl)amino]prop-1-yn-1-yl}-3-(2,2,2-trifluoroethyl)imidazo[1,2-a]pyridin-8-yl)-2-methyl-2-azaspiro[3.3]heptan-6-amine] | 0.01 to 0.1 | – | ≥ 10 | 5 to 8 | > 3 | 1.5 to 3 | 70 to 80 | > 3 | – | – | – | – | – | – | –
9 | CNC(=O)c1ccc(NCC#Cc2nc3c(N[C@@H]4CCN(C)C[C@@H]4F)cccn3c2SC(F)(F)F)c(OCCOC)c1 [Example 104, 4-{[3-(8-{[(3S,4R)-3-fluoro-1-methylpiperidin-4-yl]amino}-3-[(trifluoromethyl)sulfanyl]imidazo[1,2-a]pyridin-2-yl)prop-2-yn-1-yl]amino}-3-(2-methoxyethoxy)-N-methylbenzamide] | < 0.01 | ≥ 10 | ≥ 10 | 8 to 10 | < 0.75 | < 0.75 | 80 to 90 | < 0.75 | – | – | – | – | – | – | –
10 | CNC(=O)c1ccc(NCC#Cc2nc3c(N[C@@H]4CCN(C)C(=O)C4)cccn3c2SC(F)(F)F)c(OC)c1 [Example 169] | 0.01 to 0.1 | 5 to 10 | 5 to 10 | ≥ 10 | > 3 | > 3 | 70 to 80 | > 3 | – | – | – | – | – | – | –
11 | CNC(=O)c1ccc(OC)c(NCC#Cc2nn3c(N[C@@H]4CNC[C@@H]4F)cccc3c2SC(F)(F)F)c1 [Example 250] | – | – | – | – | – | – | – | – | < 0.01 | ≥ 10 | 5 to 8 | < 0.75 | < 0.75 | < 0.75 | 80 to 90
12 | COc1cc2c(cc1NCC#Cc1nc3c(N[C@@H]4CCN(C)C[C@@H]4F)cccn3c1CC(F)(F)F)CCNC2=O [Example 110, 6-{[3-(8-{[(3S,4R)-3-fluoro-1-methylpiperidin-4-yl]amino}-3-(2,2,2-trifluoroethyl)imidazo[1,2-a]pyridin-2-yl)prop-2-yn-1-yl]amino}-7-methoxy-3,4-dihydro-2H-isoquinolin-1-one] | < 0.01 | – | ≥ 10 | 5 to 8 | < 0.75 | < 0.75 | 80 to 90 | < 0.75 | – | – | – | – | – | – | –
13 | CNC(=O)c1cnc(OC)c(NCC#Cc2nc3c(N[C@@H]4CCN(C)C[C@@H]4F)cccn3c2SC(F)(F)F)c1 [Example 141] | < 0.01 | ≥ 10 | ≥ 10 | ≥ 10 | < 0.75 | < 0.75 | 80 to 90 | < 0.75 | – | – | – | – | – | – | –
14 | CNC(=O)c1ccc(OC)c(NCC#Cc2cc3c(N[C@@H]4CCNC[C@@H]4F)nccn3c2SC(F)(F)F)n1 [Example 340] | – | – | – | – | – | – | – | – | < 0.01 | ≥ 10 | ≥ 10 | < 0.75 | < 0.75 | < 0.75 | 80 to 90
